Experimental data published in ChEMBL document CHEMBL1126623, “Neuraminidase-resistant hemagglutination inhibitors: acrylamide copolymers containing a C-glycoside of N-acetylneuraminic acid” (J Med Chem, 1993).

Species on record: Gallus gallus
Test: Tested for inhibition of agglutination of chicken erythrocytes in vitro
Format: functional

A Ki of 400 nM was found for `C=CC(=O)NCCSCCCC1(C(=O)O)CC(O)C(NC(C)=O)C(C(O)C(O)CO)O1` (stereo unspecified) in this work.
